Experiments:
[1] = tested on: Sprague Dawley rats, 6-OHDA lesion; assay: Striatal TH expression, semi-quantitative western analysis (study 2); format: in vivo, rat; settings: more severe (40%) lesion, vs vehicle
Experimental: Rats were treated with 2LS98Lac or saline (vehicle) as outlined in the Schemes in Figures 9A,B via intraperitoneal (i.p.) injection (15 mg/kg). All animals were made hemi-parkinsonian with unilateral, striatal 6-hydroxydopamine (Sigma Aldrich, St. Louis, MO) injections. After surgery, behavioral assessments were done at 2- and 4-weeks post-surgery. 24 h after the last test animals were either euthanized and whole brains were harvested for future biochemical analysis or perfused and brains collected for immunohistochemistry and stereological assessment of tyrosine hydroxylase-positive (TH+) cells remaining in the SNc. In study 1: n = 16 each group were included, and all underwent the behavioral analysis: n = 16, and for the stereology in the SNc, n = 8 each group was used. In study 2: n = 23 each group were included. […] In the 2LS98Lac group, one video at 4 weeks was lost, reducing n = 22 in this specific analysis, and for the stereology, 2 brains were damaged during processing and could not be included in the stereology of the SNc, therefore […]. For biochemical subanalyses, n = 8 each group. For the microglial morphology subanalysis n = 7 each group.
FIGURE 9 | Evaluation of neuroprotection of the PACAP glycopeptide 2LS98Lac in rat Parkinson’s disease models. (A) Scheme for study 1, using a mild PD lesion. (B) Scheme for study 2, using a moderate PD lesion. […]

[2] = tested on: C57BL/6 mice, diffuse TBI; assay: Rotarod after TBI; format: in vivo, mouse; settings: 10 mg/kg i.p. 30 min prior to TBI, 2, 5 and 7 DPI
Experimental: 30 min prior to TBI or sham injury, mice were randomly assigned to a therapeutic group and received an intraperitoneal injection of 2LS80Mel (10 mg/kg) or sterile saline (0.25 ml). Groups were as follows: TBI-2LS80Mel n = 17; TBI-vehicle n = 17; sham n = 22 (vehicle n = 11, 2LS80Mel n = 11).
For injury induction 24 h post-surgery, mice were re-anesthetized with 5% isoflurane delivered for 3 min. The cap was removed from the injury-hub assembly and the dura was visually inspected through the hub to ensure it was intact with no debris. […] Injured mice were monitored for presence of a forearm fencing response and righting reflex times were recorded as indicators of injury severity ([Hosseini and Lifshitz, 2009]). […] After spontaneously righting, mice were placed in a heated recovery cage and monitored until they were ambulatory (approximately 5–15 min) before being returned to their piezoelectric sleep cage (see below). […]
Sensorimotor function was assessed using the Rotor-Rod system (San Diego Instruments) as we have previously published ([Rowe et al., 2018]). […] Following acclimation, mice were trained over three consecutive days prior to surgery/injury and the last training session was recorded as baseline. […]

| Structure (SMILES) | Striatal TH [1] | Rotarod latency to fall [2] |
| --- | --- | --- |
| [2H]C([2H])([2H])C([2H])(C([2H])([2H])[2H])[C@]([2H])(NC(=O)[C@H](C)NC(=O)[C@H](C)NC(=O)[C@H](CC(C)C)NC(=O)[C@H](Cc1ccc(O)cc1)NC(=O)[C@H](CCCCN)NC(=O)[C@H](CCCCN)NC(=O)[C@@]([2H])(NC(=O)[C@H](C)NC(=O)[C@H](CC(C)C)NC(=O)[C@H](CCC(N)=O)NC(=O)[C@H](CCCCN)NC(=O)[C@H](CCCNC(=N)N)NC(=O)[C@H](Cc1ccc(O)cc1)NC(=O)[C@H](CCCNC(=N)N)NC(=O)[C@H](CO)NC(=O)[C@H](Cc1ccc(O)cc1)NC(=O)[C@H](CO)NC(=O)[C@H](CC(=O)O)NC(=O)[C@@H](NC(=O)[C@H](Cc1ccccc1)NC(=O)[C@@H](NC(=O)CNC(=O)[C@H](CC(=O)O)NC(=O)[C@H](CO)NC(=O)[C@@H](N)Cc1c[nH]cn1)[C@@H](C)CC)[C@@H](C)O)C([2H])(C([2H])([2H])[2H])C([2H])([2H])[2H])C(=O)N[C@@H](CC(C)C)C(=O)N[C@@H](CO[C@@H]1O[C@H](CO)[C@@H](O[C@@H]2O[C@H](CO)[C@H](O)[C@H](O)[C@H]2O)[C@H](O)[C@H]1O)C(N)=O [Compound 2LS98Lac] | no significant difference |  |
| CC[C@H](C)[C@H](NC(=O)CNC(=O)[C@H](CC(=O)O)NC(=O)[C@H](CO)NC(=O)[C@@H](N)Cc1c[nH]cn1)C(=O)N[C@@H](Cc1ccccc1)C(=O)N[C@H](C(=O)N[C@@H](CC(=O)O)C(=O)N[C@@H](CO)C(=O)N[C@@H](Cc1ccc(O)cc1)C(=O)N[C@@H](CO)C(=O)N[C@@H](CCCNC(=N)N)C(=O)N[C@@H](Cc1ccc(O)cc1)C(=O)N[C@@H](CCCNC(=N)N)C(=O)N[C@@H](CCCCN)C(=O)N[C@@H](CCC(N)=O)C(=O)N[C@@H](CC(C)C)C(=O)N[C@@H](C)C(=O)N[C@H](C(=O)N[C@@H](CCCCN)C(=O)N[C@@H](CCCCN)C(=O)N[C@@H](Cc1ccc(O)cc1)C(=O)N[C@@H](CC(C)C)C(=O)N[C@@H](C)C(=O)N[C@@H](C)C(=O)N[C@H](C(=O)N[C@@H](CC(C)C)C(=O)N[C@@H](CO[C@@H]1O[C@H](CO[C@H]2O[C@H](CO)[C@H](O)[C@H](O)[C@H]2O)[C@@H](O)[C@H](O)[C@H]1O)C(N)=O)C(C)C)C(C)C)[C@@H](C)O [Compound 2LS80Mel] |  | comparable to uninjured shams at all time points post-injury |
